Among the data in US9714252B2, “Cyclic sulfonamides as sodium channel blockers” (priority 2012, dated 2017) are IC50 values, retold here.

The IC50 is the concentration needed to halve the response being measured.

The first experiment deals with human Nav1.7 (Homo sapiens (Human), UniProt Q15858). Briefly: FLIPR sodium dye assay (CoroNa Green) with KCl and test article pre-incubation, recombinant Nav1.7/HEK293 cells. Format: cell-based.
human Nav1.7, sequence (Q15858 with tags, fused parts or gaps limits assumed): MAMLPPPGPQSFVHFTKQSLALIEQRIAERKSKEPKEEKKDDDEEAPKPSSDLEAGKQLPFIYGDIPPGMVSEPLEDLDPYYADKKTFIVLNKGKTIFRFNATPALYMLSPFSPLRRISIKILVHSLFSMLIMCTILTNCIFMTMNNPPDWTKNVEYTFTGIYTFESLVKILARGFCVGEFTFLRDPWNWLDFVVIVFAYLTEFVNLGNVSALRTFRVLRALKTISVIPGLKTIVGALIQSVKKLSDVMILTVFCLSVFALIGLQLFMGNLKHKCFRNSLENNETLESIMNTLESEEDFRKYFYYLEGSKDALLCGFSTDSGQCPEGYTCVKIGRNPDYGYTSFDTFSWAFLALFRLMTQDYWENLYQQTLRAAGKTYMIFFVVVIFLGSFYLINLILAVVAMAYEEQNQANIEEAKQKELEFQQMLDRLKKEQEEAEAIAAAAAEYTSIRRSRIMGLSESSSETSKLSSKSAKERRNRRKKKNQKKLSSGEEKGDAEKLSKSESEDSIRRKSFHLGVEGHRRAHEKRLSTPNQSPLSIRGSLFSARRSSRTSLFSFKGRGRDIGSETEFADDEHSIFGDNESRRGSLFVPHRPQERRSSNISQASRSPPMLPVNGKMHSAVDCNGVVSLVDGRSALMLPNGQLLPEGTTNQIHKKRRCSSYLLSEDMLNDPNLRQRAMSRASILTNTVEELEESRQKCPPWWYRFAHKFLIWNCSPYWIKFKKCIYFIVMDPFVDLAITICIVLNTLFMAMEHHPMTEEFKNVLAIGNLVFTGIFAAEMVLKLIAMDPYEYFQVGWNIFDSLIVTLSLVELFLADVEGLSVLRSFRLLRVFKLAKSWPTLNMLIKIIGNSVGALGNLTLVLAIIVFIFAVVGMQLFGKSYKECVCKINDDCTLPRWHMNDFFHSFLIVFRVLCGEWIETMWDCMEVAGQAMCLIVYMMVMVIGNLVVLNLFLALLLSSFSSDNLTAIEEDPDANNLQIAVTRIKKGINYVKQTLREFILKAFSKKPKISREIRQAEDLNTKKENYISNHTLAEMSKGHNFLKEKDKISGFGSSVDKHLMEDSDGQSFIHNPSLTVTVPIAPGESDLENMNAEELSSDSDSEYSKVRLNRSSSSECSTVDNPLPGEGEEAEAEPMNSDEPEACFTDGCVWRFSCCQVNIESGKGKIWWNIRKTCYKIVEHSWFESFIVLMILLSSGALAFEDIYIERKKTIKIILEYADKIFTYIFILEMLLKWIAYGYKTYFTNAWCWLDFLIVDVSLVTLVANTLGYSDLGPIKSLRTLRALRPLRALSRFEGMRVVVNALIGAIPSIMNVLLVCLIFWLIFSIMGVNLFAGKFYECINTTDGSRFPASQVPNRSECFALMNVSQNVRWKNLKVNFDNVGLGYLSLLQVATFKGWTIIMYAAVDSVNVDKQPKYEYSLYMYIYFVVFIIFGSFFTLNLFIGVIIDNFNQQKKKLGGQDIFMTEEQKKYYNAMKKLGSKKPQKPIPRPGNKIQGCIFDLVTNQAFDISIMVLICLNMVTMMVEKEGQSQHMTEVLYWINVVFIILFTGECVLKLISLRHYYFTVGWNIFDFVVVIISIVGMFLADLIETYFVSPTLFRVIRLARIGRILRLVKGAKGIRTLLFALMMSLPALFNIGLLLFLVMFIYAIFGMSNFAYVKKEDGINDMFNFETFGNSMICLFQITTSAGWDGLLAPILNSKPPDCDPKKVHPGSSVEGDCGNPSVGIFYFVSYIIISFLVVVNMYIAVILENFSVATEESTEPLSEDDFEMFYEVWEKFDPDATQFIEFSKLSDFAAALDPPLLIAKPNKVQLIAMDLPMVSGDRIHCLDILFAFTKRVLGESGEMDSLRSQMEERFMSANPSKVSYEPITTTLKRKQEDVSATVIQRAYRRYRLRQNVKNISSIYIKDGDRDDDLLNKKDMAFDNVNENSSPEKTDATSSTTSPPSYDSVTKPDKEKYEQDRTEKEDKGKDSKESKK
Settings: not given
Take `O=S1(=O)c2ccc(Oc3ccccc3-c3ccccc3)cc2CCN1c1nccs1` [Compound 6, 6-([1,1′-biphenyl]-2-yloxy)-2-(thiazol-2-yl)-3,4-dihydro-2H-benzo[e][1,2]thiazine 1,1-dioxide]: the IC50 worked out at 1.7 µM. `O=S1(=O)c2ccc(N3CCC4(CC3)OCc3ccccc34)cc2CCN1c1nccs1` [Compound 5, 6-(3H-spiro[isobenzofuran-1,4′-piperidin]-1′-yl)-2-(thiazol-2-yl)-3,4-dihydro-2H-benzo[e][1,2]thiazine 1,1-dioxide]: the IC50 stood at 0.766 µM.

The same experiment, now with this note: recombinant human Nav1.7 in HEK293; veratridine + scorpion venom stimulation.
In the case of `Cn1nccc1-c1cc(Cl)ccc1Oc1ccc2c(c1)CN(c1nccs1)S2(=O)=O` [Compound 3, 5-(4-chloro-2-(1-methyl-1H-pyrazol-5-yl)phenoxy)-2-(thiazol-2-yl)-2,3-dihydrobenzo[d]isothiazole 1,1-dioxide], the IC50 was 9.1 µM. For `O=S1(=O)c2ccc(Oc3ccc(C(F)(F)F)cc3-c3ccnnc3)cc2CN1c1nccs1` [Compound 1, 5-(2-(pyridazin-4-yl)-4-(trifluoromethyl)phenoxy)-2-(thiazol-2-yl)-2,3-dihydrobenzo[d]isothiazole 1,1-dioxide], the concentration for half-maximal inhibition (IC50) turned out to be 1.74 µM. Still for that read-out and setting: in the case of `O=S1(=O)c2ccc(N3CCC4(CC3)OCc3ccccc34)cc2CN1c1nccs1` [Compound 4, 5-(3H-spiro[isobenzofuran-1,4′-piperidin]-1′-yl)-2-(thiazol-2-yl)-2,3-dihydrobenzo[d]isothiazole 1,1-dioxide] it was 1.38 µM; in that of `O=S1(=O)c2ccc(Oc3ccccc3-c3ccccc3)cc2CN1c1nccs1` [Compound 2, 5-([1,1′-biphenyl]-2-yloxy)-2-(thiazol-2-yl)-2,3-dihydrobenzo[d]isothiazole 1,1-dioxide], > 20 µM. For the compound `O=S1(=O)c2ccc(-c3ccc(Oc4ccc(C(F)(F)F)cc4)cc3)cc2CCN1c1nccs1` [Compound 7, 2-(thiazol-2-yl)-6-(4-(4-(trifluoromethyl)phenoxy)phenyl)-3,4-dihydro-2H-benzo[e][1,2]thiazine 1,1-dioxide], the IC50 stood at 7.09 µM.
